# Measured values reported in publication PMC6151709, “Immobilization of Moniliella spathulata R25L270 Lipase on Ionic, Hydrophobic and Covalent Supports: Functional Properties and Hydrolysis of Sardine Oil” (Molecules : A Journal of Synthetic Chemistry and Natural …, 2017).
# Tested on: T1, M. spathulata R25L270 lipase
# T1 construct: native secreted enzyme; crude culture supernatant (Macauba cake medium), not purified here; free enzyme
# Experiment: spectrophotometric release of p-nitrophenol at […] nm
# Format: biochemical, Moniliella spathulata
# Conditions: free enzyme, crude culture supernatant; pH 8.0, 37 °C; pNPP 0.1-1 mM; Triton X-100, gum arabic, 2-propanol in the substrate solution; read-out: Michaelis Constant KM
smiles,measurement,value
CCCCCCCCCCCCCCCC(=O)Oc1ccc([N+](=O)[O-])cc1 [p-nitrophenylpalmitate],Km,1.92 mM
